Assay results reported in patent US20250122202A1, “EGFR INHIBITOR, PREPARATION METHOD THEREFOR AND USE THEREOF” (SHANDONG NEW TIME PHARMACEUTICAL CO., LTD., priority 2021, published 2025).
Where two headings read alike, the source gives them in different places.

How the values were obtained:
[1] = system: A549 EGFR-WT; assay: Cell proliferation inhibition experiment (CCK-8), A549; conditions: Homo sapiens, A549, 72 h
[2] = system: KC-0178:NCI-1975 EGFR-L858R/T790M/C797S; assay: Cell proliferation inhibition experiment (CCK-8), KC-0178; type: cell-based; conditions: Homo sapiens, 72 h
From the text: (§1) Inhibition rate %=[(A0−AS)/(A0−AC)]×100%.

[3] = system: KC-1474:PC-9 EGFR-Del19/T790M/C797S; assay: Cell proliferation inhibition experiment (CCK-8), KC-1474; type: cell-based; conditions: Homo sapiens, 72 h
From the text: as §1

[4] = molecular target: EGFR-Del19/T790M/C797S kinase (Homo sapiens, UniProt P00533, C797S/T790M, form not given); assay: In-vitro enzyme experiment 2 (HTRF kinase assay), EGFR Del19 T790M C797S; type: biochemical; conditions: read-out: enzyme inhibition IC50 (nM) EGFR-Del19/T790M/C797S
EGFR-Del19/T790M/C797S kinase, sequence (P00533 25-1210 T790M/C797S limits assumed, form open): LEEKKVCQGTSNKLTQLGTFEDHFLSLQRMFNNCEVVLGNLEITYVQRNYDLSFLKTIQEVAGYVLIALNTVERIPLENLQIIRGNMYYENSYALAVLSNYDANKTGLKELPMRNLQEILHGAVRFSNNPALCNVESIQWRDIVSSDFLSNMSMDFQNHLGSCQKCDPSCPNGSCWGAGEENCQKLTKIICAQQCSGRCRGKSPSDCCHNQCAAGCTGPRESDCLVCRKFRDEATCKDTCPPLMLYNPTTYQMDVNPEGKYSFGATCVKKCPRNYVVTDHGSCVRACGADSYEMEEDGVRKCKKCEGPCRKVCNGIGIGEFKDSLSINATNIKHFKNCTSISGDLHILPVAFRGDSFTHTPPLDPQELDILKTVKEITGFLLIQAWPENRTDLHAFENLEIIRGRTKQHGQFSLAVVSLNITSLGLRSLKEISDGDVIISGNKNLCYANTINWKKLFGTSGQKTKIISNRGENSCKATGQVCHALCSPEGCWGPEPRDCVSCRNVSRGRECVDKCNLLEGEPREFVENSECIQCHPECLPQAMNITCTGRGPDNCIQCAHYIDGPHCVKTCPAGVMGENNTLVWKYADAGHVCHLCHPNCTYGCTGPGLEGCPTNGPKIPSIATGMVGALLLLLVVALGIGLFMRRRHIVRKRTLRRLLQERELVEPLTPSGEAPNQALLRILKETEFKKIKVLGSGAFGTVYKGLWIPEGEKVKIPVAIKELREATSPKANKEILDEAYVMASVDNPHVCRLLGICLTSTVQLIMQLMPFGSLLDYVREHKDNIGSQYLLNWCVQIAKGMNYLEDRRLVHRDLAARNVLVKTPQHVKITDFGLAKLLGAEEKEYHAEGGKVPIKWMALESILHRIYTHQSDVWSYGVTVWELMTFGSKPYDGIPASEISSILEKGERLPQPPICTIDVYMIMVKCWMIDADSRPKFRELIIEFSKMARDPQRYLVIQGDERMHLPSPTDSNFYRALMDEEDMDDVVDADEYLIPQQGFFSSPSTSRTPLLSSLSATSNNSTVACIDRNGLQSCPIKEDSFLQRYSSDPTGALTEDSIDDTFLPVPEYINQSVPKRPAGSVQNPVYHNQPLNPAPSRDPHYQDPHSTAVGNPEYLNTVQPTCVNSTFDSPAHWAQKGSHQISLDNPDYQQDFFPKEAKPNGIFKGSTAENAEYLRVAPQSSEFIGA
Description: The specific experiment was as follows: • 1. […] Test method of activity of compound • a) a compound diluent was transferred to each well of an assay plate (784075, Greiner) using Echo 550; • b) the assay plate was sealed and centrifuged at 1,000 g for 1 min; • c) 2×EGFR (D770-N771 ins NPG T790M) was prepared in a 1× kinase buffer; • d) 5 μl of the 2×EGFR (D770-N771 ins NPG T790M) was added to a 384-well assay plate (784075, Greiner); • e) the assay plate was centrifuged at 1,000 g for 30 s and incubated at room temperature for 10 min; • f) 2× TK-substrate-biotin (2 μM) and ATP were added to the 1× kinase buffer and mixed; • g) the reaction was started after adding 5 μl of the TK-substrate-biotin (2 μM) and ATP mixture; • h) the assay plate was centrifuged at 1,000 g for 30 s; and the assay plate was sealed and incubated at room temperature for 40 min; • i) 4× Sa-XL 665 was prepared in an HTRF detection buffer; • j) 5 μl of the Sa-XL 665 and 5 μl of a TK-antibody-cryptate were added to each well of the assay plate; • k) the assay plate was centrifuged at 1,000 g for 30 s and incubated at room temperature for 1 h; and • l) fluorescence signals at 615 nm (cryptate) and 665 nm (XL665) were read on an Envision 2104 reader. • 3. Data analysis • 3.1 Calculation of ratio (665/615 nm) of each well • 3.2 Calculation of inhibition rate
[formula] • 3.3 Calculation of IC50 value of compound and drawing dose-effect curve of compound • IC50 values were calculated using GraphPad 6.0 by applying a non-linear regression curve (dose-effect relationship-variable slope) of the logarithm of the compound concentration versus the inhibition rate.
The preparation of the kinase buffer, the test method of the activity of the compound, and the data analysis referred to the relevant definitions in example 117, wherein step c) of the test method of the activity of the compound was replaced by preparing 2×EGFR Del19 T790M C797S in the 1× kinase buffer.

[5] = system: H1975 EGFR-L858R/T790M; assay: Cell proliferation inhibition experiment (CCK-8), H1975; type: cell-based; conditions: Homo sapiens, NCI-H1975, 72 h
From the text: as §1

[6] = system: PC-9 EGFR-Del19; assay: Cell proliferation inhibition experiment (CCK-8), PC-9; type: cell-based; conditions: Homo sapiens, 72 h
From the text: as §1

[7] = read-out: cell proliferation inhibition IC50 (μM) A549, 72 h, CCK-8, Table 5 numeric
[8] = read-out: cell proliferation inhibition IC50 (μM) A549
[9] = read-out: cell proliferation inhibition IC50 (μM) A549, 72 h, CCK-8

Row | Compound | IC50 [2] | IC50 [3] | IC50 [4] | other results
1 | C=CC(=O)Nc1cccc(Oc2nc(Nc3ccc(N4CCN(C)CC4)c(F)c3)nc3[nH]ccc23)c1 [Avitinib, reference compound] | 1 to 2 µM | 0.1 to 1 µM | – | IC50 [1, 7]: 1.06 µM
2 | COc1cc(N2CCC(N3CCN(C)CC3)CC2)ccc1Nc1ncc(Cl)c(Nc2ccccc2P(C)(C)=O)n1 [Brigatinib, reference compound] | – | – | – | IC50 [1, 8]: 6.13 µM
3 | CN1CCN(c2ccc(Nc3nc(N[C@@H]4CCCN(S(=O)(=O)C5CC5)C4)c4c(C(=O)c5ccc(F)cc5)c[nH]c4n3)cc2)CC1 [Example 3] | – | – | – | IC50 [1, 8]: 2.67 µM
4 | Cn1cc(Nc2nc(N[C@@H]3CCCN(S(=O)(=O)C4CC4)C3)c3c(C(=O)c4ccc(F)cc4)c[nH]c3n2)cn1 [Example 4] | – | – | – | IC50 [1, 7]: 6.53 µM
5 | CN1CCN(c2ccc(Nc3nc(NC4(CO)CC4)c4c(C(=O)c5ccc(F)cc5)c[nH]c4n3)cc2)CC1 [Example 10] | – | – | 10 to 100 nM | –
6 | CN1CCN(c2ccc(Nc3nc(NC4(CO)CCCC4)c4c(C(=O)c5ccc(F)cc5)c[nH]c4n3)cc2)CC1 [Example 11] | – | – | 100 to 600 nM | –
7 | CN1CCN(c2ccc(Nc3nc(N[C@@H]4C=C[C@H](CO)C4)c4c(C(=O)c5ccc(F)cc5)c[nH]c4n3)cc2)CC1 [Example 19] | 1 to 2 µM | 0.1 to 1 µM | 10 to 100 nM | IC50 [1, 9]: 0.1 to 1 µM; IC50 [5]: 0.1 to 1 µM; IC50 [6]: < 0.1 µM
8 | CN1CCN(c2ccc(Nc3nc(N[C@H]4C=C[C@@H](CO)C4)c4c(C(=O)c5ccc(F)cc5)c[nH]c4n3)cc2)CC1 [Example 20] | 1 to 2 µM | 0.1 to 1 µM | 10 to 100 nM | IC50 [1, 9]: 0.1 to 1 µM; IC50 [5]: 0.1 to 1 µM; IC50 [6]: < 0.1 µM
9 | CN1CCN(c2ccc(Nc3nc(N[C@H]4CCCN(S(=O)(=O)C5CC5)C4)c4c(C(=O)c5ccc(F)cc5)c[nH]c4n3)cc2)CC1 [Example 21] | – | – | – | IC50 [1, 7]: 0.61 µM
10 | CN1CCN(c2ccc(Nc3nc(NC4CCCCC4)c4c(C(=O)c5ccc(F)cc5)c[nH]c4n3)cc2)CC1 [Example 41] | – | – | 100 to 600 nM | –
11 | CN1CCN(c2ccc(Nc3nc(N[C@@H]4CCN(S(C)(=O)=O)C4)c4c(C(=O)c5ccc(F)cc5)c[nH]c4n3)cc2)CC1 [Example 49] | – | – | 100 to 600 nM | –
12 | CN1CCN(c2ccc(Nc3nc(N[C@@H]4CCCN(S(C)(=O)=O)C4)c4c(C(=O)c5ccc(F)cc5)c[nH]c4n3)cc2)CC1 [Example 50] | – | – | 100 to 600 nM | –
13 | CN1CCN(c2ccc(Nc3nc(N[C@H]4CC[C@@H](O)CC4)c4c(C(=O)c5ccc(F)cc5)c[nH]c4n3)cc2)CC1 [Example 55] | 0.1 to 1 µM | < 0.1 µM | 10 to 100 nM | IC50 [1, 9]: 0.1 to 1 µM; IC50 [5]: 0.1 to 1 µM; IC50 [6]: < 0.1 µM
14 | CN1CCN(c2ccc(Nc3nc(N[C@H]4CC[C@H](O)CC4)c4c(C(=O)c5ccc(F)cc5)c[nH]c4n3)cc2)CC1 [Example 56] | 1 to 2 µM | < 0.1 µM | 10 to 100 nM | IC50 [1, 9]: 0.1 to 1 µM; IC50 [5]: 0.1 to 1 µM; IC50 [6]: < 0.1 µM
15 | CN1CCN(c2ccc(Nc3nc(N[C@H]4CCCOC4)c4c(C(=O)c5ccc(F)cc5)c[nH]c4n3)cc2)CC1 [Example 57] | – | – | 100 to 600 nM | –
16 | CN1CCN(c2ccc(Nc3nc(N[C@@H]4CCCOC4)c4c(C(=O)c5ccc(F)cc5)c[nH]c4n3)cc2)CC1 [Example 58] | – | – | 100 to 600 nM | –
17 | CN1CCN(c2ccc(Nc3nc(NCC4CCOCC4)c4c(C(=O)c5ccc(F)cc5)c[nH]c4n3)cc2)CC1 [Example 59] | – | – | 100 to 600 nM | –
18 | CN1CCN(c2ccc(Nc3nc(NC4CCN(S(=O)(=O)C5CC5)CC4)c4c(C(=O)c5ccc(F)cc5)c[nH]c4n3)cc2)CC1 [Example 63] | – | – | 100 to 600 nM | –
19 | CN1CCN(c2ccc(Nc3nc(N[C@H]4CCOC4)c4c(C(=O)c5ccc(F)cc5)c[nH]c4n3)cc2)CC1 [Example 67] | – | – | 100 to 600 nM | –
20 | CN1CCN(c2ccc(Nc3nc(N[C@@H]4CCOC4)c4c(C(=O)c5ccc(F)cc5)c[nH]c4n3)cc2)CC1 [Example 68] | – | – | 100 to 600 nM | –
21 | CO[C@H]1CC[C@H](Nc2nc(Nc3ccc(N4CCN(C)CC4)cc3)nc3[nH]cc(C(=O)c4ccc(F)cc4)c23)CC1 [Example 73] | – | – | 100 to 600 nM | –

Row | Compound | IC50 [2] | IC50 [3] | IC50 [4] | other results
22 | CN1CCN(c2ccc(Nc3nc(N[C@H]4CC[C@H](CO)CC4)c4c(C(=O)c5ccc(F)cc5)c[nH]c4n3)cc2F)CC1 [Example 78] | 1 to 2 µM | < 0.1 µM | 10 to 100 nM | IC50 [5]: 0.1 to 1 µM; IC50 [6]: < 0.1 µM
23 | COc1cc(N2CCN(C)CC2)ccc1Nc1nc(N[C@H]2CC[C@H](CO)CC2)c2c(C(=O)c3ccc(F)cc3)c[nH]c2n1 [Example 80] | – | – | 100 to 600 nM | –
24 | COc1cc(N2CCOCC2)ccc1Nc1nc(N[C@H]2CC[C@H](CO)CC2)c2c(C(=O)c3ccc(F)cc3)c[nH]c2n1 [Example 81] | – | – | – | IC50 [1, 7]: 0.92 µM
25 | O=C(c1ccc(F)cc1)c1c[nH]c2nc(Nc3ccc(N4CCOCC4)c(F)c3)nc(N[C@H]3CC[C@H](CO)CC3)c12 [Example 82] | – | – | 100 to 600 nM | –
26 | CN1CCN(c2ccc(Nc3nc(OC4CCOCC4)c4c(C(=O)c5ccc(F)cc5)c[nH]c4n3)cc2)CC1 [Example 84] | – | – | 100 to 600 nM | –
27 | CN1CCC(Nc2nc(Nc3ccc(N4CCN(C)CC4)cc3)nc3[nH]cc(C(=O)c4ccc(F)cc4)c23)CC1 [Example 85] | – | – | 100 to 600 nM | –
28 | CN1CCN(c2ccc(Nc3nc(N[C@H]4CC[C@@H](N)CC4)c4c(C(=O)c5ccc(F)cc5)c[nH]c4n3)cc2)CC1 [Example 86] | 1 to 2 µM | < 0.1 µM | < 10 nM | IC50 [5]: 0.1 to 1 µM; IC50 [6]: < 0.1 µM
29 | O=C(c1ccc(F)cc1)c1c[nH]c2nc(Nc3ccc(N4CCOCC4)cc3)nc(N[C@@H]3CC[C@@H](CO)OC3)c12 [Example 94] | – | – | 10 to 100 nM | –
30 | CN1CCN(c2ccc(Nc3nc(N[C@@H]4CC[C@@H](CO)OC4)c4c(C(=O)c5ccc(F)cc5)c[nH]c4n3)cc2)CC1 [Example 95] | < 0.1 µM | 0.1 to 1 µM | 10 to 100 nM | –
31 | Cc1ccc(C(=O)c2c[nH]c3nc(Nc4ccc(N5CCOCC5)cc4)nc(N[C@H]4CC[C@H](CO)CC4)c23)cc1 [Example 97] | 0.1 to 1 µM | 0.1 to 1 µM | – | –
32 | O=C(c1ccccc1)c1c[nH]c2nc(Nc3ccc(N4CCOCC4)cc3)nc(N[C@H]3CC[C@H](CO)CC3)c12 [Example 98] | – | – | 100 to 600 nM | –
33 | CC(C)N1CCC(Nc2nc(Nc3ccc(N4CCOCC4)cc3)nc3[nH]cc(C(=O)c4ccc(F)cc4)c23)CC1 [Example 99] | – | – | – | IC50 [1, 7]: 0.76 µM
34 | O=C(c1cc(F)cc(F)c1)c1c[nH]c2nc(Nc3ccc(N4CCOCC4)cc3)nc(N[C@H]3CC[C@H](CO)CC3)c12 [Example 101] | – | – | – | IC50 [1, 7]: 0.46 µM
35 | CN1CCN(c2ccc(Nc3nc(N[C@H]4CC[C@@H](CO)CC4)c4c(C(=O)c5ccc(F)cc5)c[nH]c4n3)cc2F)CC1 [Example 103] | 1 to 2 µM | < 0.1 µM | 10 to 100 nM | IC50 [1, 9]: 0.1 to 1 µM; IC50 [5]: 0.1 to 1 µM; IC50 [6]: < 0.1 µM
36 | O=C(c1ccc(F)cc1Cl)c1c[nH]c2nc(Nc3ccc(N4CCOCC4)cc3)nc(N[C@H]3CC[C@H](CO)CC3)c12 [Example 105] | – | – | – | IC50 [1, 7]: 0.29 µM
37 | COc1cc(N2CCN(C)CC2)ccc1Nc1nc(N[C@H]2CC[C@@H](CO)CC2)c2c(C(=O)c3ccc(F)cc3)c[nH]c2n1 [Example 106] | 1 to 2 µM | 0.1 to 1 µM | 10 to 100 nM | –
38 | CN(C)CCOc1ccc(Nc2nc(N[C@H]3CC[C@@H](CO)CC3)c3c(C(=O)c4ccc(F)cc4)c[nH]c3n2)cc1 [Example 107] | 1 to 2 µM | 0.1 to 1 µM | 10 to 100 nM | IC50 [5]: 0.1 to 1 µM; IC50 [6]: < 0.1 µM
39 | O=C(c1ccc(F)c(F)c1F)c1c[nH]c2nc(Nc3ccc(N4CCOCC4)cc3)nc(N[C@H]3CC[C@H](CO)CC3)c12 [Example 108] | – | – | 100 to 600 nM | –
40 | COc1nn(C)cc1Nc1nc(N[C@H]2CC[C@H](CO)CC2)c2c(C(=O)c3ccc(F)cc3)c[nH]c2n1 [Example 112] | – | – | 100 to 600 nM | –
41 | C=CC(=O)Nc1cc(Nc2nccc(-c3cn(C)c4ccccc34)n2)c(OC)cc1N(C)CCN(C)C [Osimertinib, reference compound] | 1 to 2 µM | 1 to 2 µM | – | IC50 [1, 8]: 3.01 µM
